Tests used:
hERG (KCNH2) = hERG (KCNH2) (Homo sapiens, UniProt Q12809); test: Inhibition of human ERG expressed in human embryonic kidney cells at 10 uM; assay type: cell-based; settings: human embryonic kidney cells expressing human ERG
[1] = target: Potassium voltage-gated channel subfamily A member 5 (Homo sapiens, UniProt P22460); test: Inhibition of human Kv1.5 channel expressed in mouse L929 cells; assay type: cell-based
Chain of Potassium voltage-gated channel subfamily A member 5 (P22460 whole entry): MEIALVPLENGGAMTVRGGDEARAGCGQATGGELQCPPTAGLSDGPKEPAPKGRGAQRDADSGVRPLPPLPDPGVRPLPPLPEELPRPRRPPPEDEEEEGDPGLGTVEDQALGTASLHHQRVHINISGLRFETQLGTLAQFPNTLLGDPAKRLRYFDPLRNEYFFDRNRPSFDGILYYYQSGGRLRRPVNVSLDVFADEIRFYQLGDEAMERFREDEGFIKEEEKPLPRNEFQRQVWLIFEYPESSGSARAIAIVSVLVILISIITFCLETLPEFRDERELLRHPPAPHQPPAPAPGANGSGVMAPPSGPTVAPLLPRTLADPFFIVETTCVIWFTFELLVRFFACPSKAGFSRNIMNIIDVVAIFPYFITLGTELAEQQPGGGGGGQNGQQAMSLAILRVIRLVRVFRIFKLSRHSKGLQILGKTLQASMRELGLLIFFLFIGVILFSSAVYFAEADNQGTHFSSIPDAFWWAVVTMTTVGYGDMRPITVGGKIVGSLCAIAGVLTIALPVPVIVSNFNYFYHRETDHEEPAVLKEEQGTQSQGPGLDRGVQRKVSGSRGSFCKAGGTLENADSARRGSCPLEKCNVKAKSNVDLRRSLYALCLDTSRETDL

Chain of hERG (KCNH2) (Q12809 whole entry): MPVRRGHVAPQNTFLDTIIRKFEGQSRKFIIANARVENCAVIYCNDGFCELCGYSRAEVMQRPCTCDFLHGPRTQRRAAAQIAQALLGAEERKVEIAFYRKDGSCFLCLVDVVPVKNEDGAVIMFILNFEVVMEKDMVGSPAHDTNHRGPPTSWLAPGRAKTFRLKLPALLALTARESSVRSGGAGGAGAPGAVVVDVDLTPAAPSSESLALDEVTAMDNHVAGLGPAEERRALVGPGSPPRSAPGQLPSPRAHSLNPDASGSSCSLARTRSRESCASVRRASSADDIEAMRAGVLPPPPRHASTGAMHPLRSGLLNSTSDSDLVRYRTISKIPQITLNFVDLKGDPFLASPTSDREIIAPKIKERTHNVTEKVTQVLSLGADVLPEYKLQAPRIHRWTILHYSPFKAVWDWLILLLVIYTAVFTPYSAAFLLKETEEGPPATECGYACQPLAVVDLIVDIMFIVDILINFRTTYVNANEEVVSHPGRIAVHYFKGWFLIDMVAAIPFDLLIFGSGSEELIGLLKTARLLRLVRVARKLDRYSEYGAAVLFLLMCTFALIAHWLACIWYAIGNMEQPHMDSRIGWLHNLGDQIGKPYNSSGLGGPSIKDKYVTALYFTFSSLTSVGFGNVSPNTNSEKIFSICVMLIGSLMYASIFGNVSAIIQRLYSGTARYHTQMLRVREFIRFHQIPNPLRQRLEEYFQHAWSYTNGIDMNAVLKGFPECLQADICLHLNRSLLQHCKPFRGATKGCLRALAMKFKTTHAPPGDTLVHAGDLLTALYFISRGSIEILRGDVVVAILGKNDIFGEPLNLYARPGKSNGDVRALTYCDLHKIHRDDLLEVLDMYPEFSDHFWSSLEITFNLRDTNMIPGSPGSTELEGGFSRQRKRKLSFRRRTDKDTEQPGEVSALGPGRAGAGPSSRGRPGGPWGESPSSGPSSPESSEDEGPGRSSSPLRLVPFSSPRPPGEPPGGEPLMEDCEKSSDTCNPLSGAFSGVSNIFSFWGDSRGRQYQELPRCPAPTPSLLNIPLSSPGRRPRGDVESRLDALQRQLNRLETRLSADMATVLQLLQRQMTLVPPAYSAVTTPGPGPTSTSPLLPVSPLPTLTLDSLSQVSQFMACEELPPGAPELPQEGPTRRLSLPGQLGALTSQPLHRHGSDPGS

Structure (SMILES)	inhibition at 10 µM (hERG (KCNH2)) [%]	IC50 [1] [nM]
CCc1ccc(S(=O)(=O)N[C@@H]2c3cc(C(=O)N(CC)Cc4ccccc4F)ccc3OC(C)(C)[C@H]2O)cc1	7	170
CCc1ccc(S(=O)(=O)N[C@@H]2c3cc(C(=O)NCCc4ccccc4)ccc3OC(C)(C)[C@H]2O)cc1		260
CCc1ccc(S(=O)(=O)N[C@@H]2c3cc(C(=O)N(CC)CCNc4ccccc4)ccc3OC(C)(C)[C@H]2O)cc1	39	77
CCc1ccc(S(=O)(=O)N[C@@H]2c3cc(C(=O)NCCc4ccccn4)ccc3OC(C)(C)[C@H]2O)cc1		> 1000
CC1(C)Oc2ccc(C(=O)NCCc3ccccc3)cc2[C@@H](NS(=O)(=O)c2ccccc2)[C@@H]1O		> 1000
Cc1ccc(S(=O)(=O)N[C@@H]2c3cc(C(=O)NCCc4ccccc4)ccc3OC(C)(C)[C@H]2O)cc1		400
Cc1cccc(S(=O)(=O)N[C@@H]2c3cc(C(=O)NCCc4ccccc4)ccc3OC(C)(C)[C@H]2O)c1		340
CC1(C)Oc2ccc(C(=O)NCCc3ccccc3)cc2[C@@H](NS(=O)(=O)c2ccccc2OC(F)(F)F)[C@@H]1O		150
CCc1ccc(S(=O)(=O)N[C@H]2c3cc(C(=O)NCCc4ccccc4)ccc3OC(C)(C)[C@@H]2O)cc1		> 1000
CCc1ccc(S(=O)(=O)N[C@H]2c3cc(C(=O)N4CCC[C@@H]4CNc4c(C)cccc4C)ccc3OC(C)(C)[C@@H]2O)cc1		89
CCc1ccc(S(=O)(=O)N[C@H]2CC(C)(C)Oc3ccc(C(=O)N4CCC[C@H]4CNc4c(C)cccc4C)cc32)cc1	51	110
CCc1ccc(S(=O)(=O)N[C@@H]2c3cc(C(=O)N(CC)[C@@H]4CCN(Cc5ccccc5)C4)ccc3OC(C)(C)[C@H]2O)cc1		210
CCc1ccc(S(=O)(=O)N[C@@H]2c3cc(C(=N)NCCc4ccccc4)ccc3OC(C)(C)[C@H]2O)cc1		> 10000
CCc1ccc(S(=O)(=O)N(Cc2ccccn2)[C@@H]2c3cc(C(=O)NCCc4ccccc4)ccc3OC(C)(C)[C@H]2O)cc1		120
CCc1ccc(S(=O)(=O)N[C@@H]2c3cc(C(=O)N4CCC[C@@H]4CNc4c(C)cccc4C)ccc3OC(C)(C)[C@H]2O)cc1		130
CC1(C)Oc2ccc(C(=O)NCCc3ccccc3)cc2[C@@H](NS(=O)(=O)c2ccc(F)cc2)[C@@H]1O		> 1000
COc1ccc(S(=O)(=O)N[C@@H]2c3cc(C(=O)NCCc4ccccc4)ccc3OC(C)(C)[C@H]2O)cc1		> 1000
CCc1ccc(S(=O)(=O)N(Cc2cccnc2)[C@@H]2c3cc(C(=O)NCCc4ccccc4)ccc3OC(C)(C)[C@H]2O)cc1	61	130
CCCCN([C@@H]1c2cc(C(=O)NCCc3ccccc3)ccc2OC(C)(C)[C@H]1O)S(=O)(=O)c1ccc(CC)cc1	35	57

Structure (SMILES)	inhibition at 10 µM (hERG (KCNH2)) [%]	IC50 [1] [nM]
CCc1ccc(S(=O)(=O)N(Cc2cnc[nH]2)[C@@H]2c3cc(C(=O)NCCc4ccccc4)ccc3OC(C)(C)[C@H]2O)cc1		280
CCc1ccc(S(=O)(=O)N(CC(C)(C)C)[C@@H]2c3cc(C(=O)NCCc4ccccc4)ccc3OC(C)(C)[C@H]2O)cc1		120
CCc1ccc(S(=O)(=O)N[C@@H]2c3cc(NC(=O)c4cccc(OC)c4)ccc3OC(C)(C)[C@H]2O)cc1	40	290
CCc1ccc(S(=O)(=O)N[C@@H]2c3cc(C(=O)Nc4cccc(OC)c4)ccc3OC(C)(C)[C@H]2O)cc1		> 10000
CCc1ccc(S(=O)(=O)N[C@@H]2c3cc(C(=O)Nc4ccccc4)ccc3OC(C)(C)[C@H]2O)cc1		260
CCc1ccc(S(=O)(=O)N[C@@H]2c3cc(NC(=O)c4cccc(OC)c4)ccc3C[C@H]2O)cc1	21	
CCc1ccc(S(=O)(=O)N[C@@H]2c3cc(CNCCc4ccccc4)ccc3OC(C)(C)[C@H]2O)cc1		240
CCc1ccc(S(=O)(=O)N[C@@H]2c3cc(C(=O)N4CCC[C@H]4CNc4c(C)cccc4C)ccc3OC(C)(C)[C@H]2O)cc1	9	120
CCc1ccc(S(=O)(=O)N[C@@H]2c3cc(C(=O)N(C)c4ccccc4)ccc3OC(C)(C)[C@H]2O)cc1		280
CCc1ccc(S(=O)(=O)N[C@@H]2c3cc(C(=O)n4nc(-c5ccccc5)cc4N)ccc3OC(C)(C)[C@H]2O)cc1	47	79
CCc1ccc(S(=O)(=O)N[C@@H]2c3cc(C(=O)N(CC)[C@H]4CCN(Cc5ccccc5)C4)ccc3OC(C)(C)[C@H]2O)cc1		170
CCc1ccc(S(=O)(=O)N[C@H]2c3cc(C(=O)N4CCC[C@H]4CNc4c(C)cccc4C)ccc3OC(C)(C)[C@@H]2O)cc1		260
CCc1ccc(S(=O)(=O)N[C@H]2c3cc(C(=O)N(CC)[C@@H]4CCN(Cc5ccccc5)C4)ccc3OC(C)(C)[C@@H]2O)cc1		220
CCc1ccc(S(=O)(=O)N[C@@H]2c3cc(C(=O)NCCc4c[nH]cn4)ccc3OC(C)(C)[C@H]2O)cc1		> 10000
CC1(C)Oc2ccc(C(=O)NCCc3ccccc3)cc2[C@@H](NS(=O)(=O)c2ccc(C(F)(F)F)cc2)[C@@H]1O		200
CCc1ccc(S(=O)(=O)N[C@@H]2c3cc(S(=O)(=O)NCCc4ccccc4)ccc3OC(C)(C)[C@H]2O)cc1		510
CC1(C)Oc2ccc(C(=O)NCCc3ccccc3)cc2[C@@H](NS(=O)(=O)c2ccc([N+](=O)[O-])cc2)[C@@H]1O		> 1000
CCc1ccc(S(=O)(=O)N(CC(C)C)[C@@H]2c3cc(C(=O)NCCc4ccccc4)ccc3OC(C)(C)[C@H]2O)cc1		320
CCc1ccc(S(=O)(=O)N[C@H]2c3cc(C(=O)N(CC)[C@H]4CCN(Cc5ccccc5)C4)ccc3OC(C)(C)[C@@H]2O)cc1	80	200

Source: ChEMBL document CHEMBL1145354, “Benzopyran sulfonamides as KV1.5 potassium channel blockers” (Bioorg Med Chem Lett, 2007)
